Assay: Syringeability of dosing solutions (dripping-syringe method)
Format: physicochemical
Method: Table 4, below, provides evaluations of the syringeability of dosing solutions of selected florfenicol benzylic carbonate prodrugs at concentrations equivalent to 300 mg/ml florfenicol (30% weight/volume).
High concentrations of fenicol or fenicol drug contained in a fenicol prodrug are often necessary for convenient administration of the necessary amount of the desired amount of the antibiotic. Due to the limited solubility of fenicols in many organic solvents or mixtures of solvents acceptable for injectable formulations the choice of solvents for preparation of highly concentrated florfenicol solutions is limited. As a result highly concentrated solutions of fenicol drugs in organic solvents or solvent mixtures may become highly viscous and difficult to administer by a syringe. Therefore the ability of fenicol benzylic carbonate prodrugs to dissolve in a wider range of organic solvents or mixtures of solvents acceptable for injectable formulations offered the potential to prepare highly concentrated solutions for injections with lower viscosity. […] Test solutions of florfenicol benzylic carbonates containing concentrations of florfenicol (mg/mL) equivalent to the concentration present in Nuflor® formulation were prepared. Syringeabilities of the solutions were evaluated by means of the “dripping syringe” method in which the dripping times (sec) of equal volumes of such solutions under free gravitational flow conditions from a vertically positioned syringe were measured at 15° C. After removing the plunger from a 5 ml polyethylene disposable syringe (5 ml Luer, Norm-Ject Zentrish/Henke Saas Wolf GMBH) and fitting the syringe with a disposable needle (B-D® 16G1 Precision Glide/BentonDickinson & CO) the test solutions were loaded from the top into the syringe and the time necessary for the free flow of 2 mL of solution (between 3 ml and 1 ml marks) was recorded in triplicate. The syringeabilities relative to Nuflor® were calculated by dividing the dripping time for the test solutions (entries 1-12) by the dripping time measured for the commercial sample of Nuflor® formulation (entry 13) As it is evident from the results in Table 4 the syringeabilities of tested solutions containing benzyl alcohol as viscosity diluent had relative syringeabilities <1.00 and were therefore better than Nuflor® (30% weight/volume florfenicol solution in propylene glycol/polyethylene glycol 300/2-methyl pyrolidinone). Due to their better syringeability these solutions represent more favorable formulations for injectable delivery of florfenicol. Solution of the florfenicol benzylic carbonate of the example 2 in triacetin/2-pyrolidinone—1/1 lacking the benzyl alcohol viscosity diluent was the only solution with syringeability poorer that than that of Nuflor® (entry 5).

[1] = 358 mg/ml, 2-pyrolidinone/benzyl alcohol - 1:1, 15° C.
[2] = 358 mg/ml, Triacetin/2-pyrolidinone - 1:1, 15° C.
[3] = 358 mg/ml, Triacetin/benzyl alcohol - 2:1.5, 15° C.

## CCOC(=O)O[C@H](c1ccc(S(C)(=O)=O)cc1)[C@@H](CF)NC(=O)C(Cl)Cl [Example 2, (1R,2S)-2-(2,2-dichloroacetamido)-3-fluoro-1-(4-(methylsulfonyl)phenyl)propyl ethyl carbonate]
[1]
  Syringeability measurement: Dripping time: 108 ± 1 s
  Syringeability measurement: Relative to NUFLOR: 0.46
[2]
  Syringeability measurement: Dripping time: 268 ± 4 s
  Syringeability measurement: Relative to NUFLOR: 1.15
[3]
  Syringeability measurement: Dripping time: 97 ± 1 s
  Syringeability measurement: Relative to NUFLOR: 0.42
Prodrug concentration equivalent to 300 mg/ml florfenicol, Triacetin/benzyl alcohol - 2:1 (vol/vol), 15° C.
  Syringeability measurement: Relative to NUFLOR: 0.55
Prodrug concentration equivalent to 300 mg/ml florfenicol, Triacetin/benzyl alcohol - 2:1 (vol/vol), free flow of 2 mL at 15° C.
  Syringeability measurement: Dripping time: 128 ± 7 s

Source: patent US8119667B2, “Carbonates of fenicol antibiotics” (Schering-Plough Animal Health Corporation, priority 2005, dated 2012)
